Measurements: US12240862B2, “Inhibitors of peptidylarginine deiminases” (Gilead Sciences, Inc., priority 2020, dated 2025)

target: T1, human PAD4 (Homo sapiens, UniProt Q9UM07); test: In vitro PAD4 BAEE biochemical assay; conditions: human PAD4, BAEE substrate; 5 nM PAD4, 2 mM calcium chloride, 3 mM BAEE; geometric mean of multiple experiments
T1 construct: human PAD4 (NM_012387), A2P663, was PCR amplified; His-SUMO (N, cleaved yes); made in house; host or cells: E. coli BL21(DE3)
Outline: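 Tag-free recombinant hPAD4 (5 nM), 2 mM CaCl2, 3 mM BAEE, 50 mM MOPS pH 7.6, 2 mM DTT; 30 min compound preincubation, 2 h reaction, all 25 °C. EDTA quench; ammonia read via o-phthalaldehyde amine coupling, 1 h.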

T1 sequence (Q9UM07 2-663): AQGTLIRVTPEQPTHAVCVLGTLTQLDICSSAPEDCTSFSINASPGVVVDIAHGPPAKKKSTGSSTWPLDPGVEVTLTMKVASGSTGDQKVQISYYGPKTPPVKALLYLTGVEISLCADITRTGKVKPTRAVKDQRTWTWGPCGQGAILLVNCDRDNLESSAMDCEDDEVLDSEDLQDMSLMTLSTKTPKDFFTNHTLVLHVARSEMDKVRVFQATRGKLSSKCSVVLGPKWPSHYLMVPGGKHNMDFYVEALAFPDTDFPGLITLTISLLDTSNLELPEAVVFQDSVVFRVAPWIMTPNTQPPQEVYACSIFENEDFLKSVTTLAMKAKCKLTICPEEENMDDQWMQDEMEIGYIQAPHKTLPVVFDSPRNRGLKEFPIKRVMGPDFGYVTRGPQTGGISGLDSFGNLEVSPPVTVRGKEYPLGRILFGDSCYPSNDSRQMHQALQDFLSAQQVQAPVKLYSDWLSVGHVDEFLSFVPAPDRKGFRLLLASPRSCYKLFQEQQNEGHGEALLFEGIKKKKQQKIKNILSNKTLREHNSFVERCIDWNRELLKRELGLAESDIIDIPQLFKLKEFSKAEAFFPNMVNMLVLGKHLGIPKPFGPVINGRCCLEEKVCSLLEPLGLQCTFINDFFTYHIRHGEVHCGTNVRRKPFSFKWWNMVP

| IC50 [nM] | Structure (SMILES) |
| --- | --- |
| 18200 | COc1cc(C(=O)N2C[C@@H]3CC[C@H]2[C@H](N)C3)cc2nc(-c3cc4ccc(N(C(F)F)S(C)(=O)=O)nc4n3CC3CC3)c(C)n12 [Example 377, ~{N}-[2-[7-[(1~{R},4~{S}, 6~{R})-6-amino-2-azabicyclo[2.2.2]octane-2-carbonyl]-5-methoxy-3-methylimidazo[1,2-a]pyridin-2-yl]-1-(cyclopropylmethyl)pyrrolo [2,3-b]pyridin-6-yl]-~{N}-(difluoromethyl) methanesulfonamide] |
| 341 | COc1cc(C(=O)N2C[C@H]3C[C@H](O)[C@@H]2[C@@H]3N)cc2nc(-c3cc4ccc(N(C(F)F)S(C)(=O)=O)nc4n3CC3CC3)c(C)n12 [Example 378, N-[2-[7-[(1S,4R,6S,7R)-7-amino-6-hydroxy-2-azabicyclo[2.2.1]heptane-2-carbonyl]-5-methoxy-3-methyl-imidazo [1,2-a]pyridin-2-yl]-1-(cyclopropylmethyl)pyrrolo [2,3-b]pyridin-6-yl]-N-(difluoromethyl) methanesulfonamide] |
| 24700 | COc1cc(C(=O)N2CCC3(CNC3)C2)cc2nc(-c3cc4ccc(N(C(F)F)S(C)(=O)=O)nc4n3CC3CC3)c(C)n12 [Example 380, ~{N}-[1-(cyclopropylmethyl)-2-[7-(2,6-diazaspiro[3.4]octane-6-carbonyl)-5-methoxy-3-methylimidazo[1,2-a]pyridin-2-yl]pyrrolo[2,3-b]pyridin-6-yl]-~{N}-(difluoromethyl) methanesulfonamide] |
| 538 | COc1cc(C(=O)N2C[C@H]3CC[C@@H]2[C@H](N)C3)cc2nc(-c3cc4ccc(N(C(F)F)S(C)(=O)=O)nc4n3CC3CC3)c(C)n12 [Example 381, ~{N}-[2-[7-[(1~{R},4~{S}, 6~{R})-6-amino-2-azabicyclo[2.2.2]octane-2-carbonyl]-5-methoxy-3-methylimidazo[1,2-a]pyridin-2-yl]-1-(cyclopropylmethyl)pyrrolo [2,3-b]pyridin-6-yl]-~{N}-(difluoromethyl) methanesulfonamide] |
| 204 | COc1cc(C(=O)N2[C@@H]3CC[C@@H](N)[C@H]2CC3)cc2nc(-c3cc4ccc(N(C(F)F)S(C)(=O)=O)nc4n3CC3CC3)c(C3CC3)n12 [Example 382, ~{N}-[2-[7-[(1~{R},2~{R}, 5~{R})-2-amino-8-azabicyclo[3.2.1]octane-8-carbonyl]-3-cyclopropyl-5-methoxyimidazo[1,2-a]pyridin-2-yl]-1-(cyclopropylmethyl)pyrrolo [2,3-b]pyridin-6-yl]-~{N}-(difluoromethyl) methanesulfonamide] |
| 447 | COc1cc(C(=O)N2CC[C@H]3OCCN[C@H]3C2)cc2nc(-c3cc4ccc(N(C(F)F)S(C)(=O)=O)nc4n3CC3CC3)c(C)n12 [Example 383, ~{N}-[2-[7-[(4~{a}~{S},8~{a}~{R})-2,3,4,4~{a},5,7,8,8~{a}-octahydropyrido[4,3-b][1,4]oxazine-6-carbonyl]-5-methoxy-3-methylimidazo[1,2-a]pyridin-2-yl]-1-(cyclopropylmethyl)pyrrolo[2,3-b]pyridin-6-yl]-~{N}-(difluoromethyl) methanesulfonamide] |
| 888 | COc1cc(C(=O)N2CC[C@H]3OCCN[C@H]3C2)cc2nc(-c3cc4ccc(N(C(F)F)S(C)(=O)=O)nc4n3CC3CC3)c(C3CC3)n12 [Example 384, ~{N}-[2-[7-[(4~{a}~{S},8~{a}~{R})-2,3,4,4~{a},5,7,8,8~{a}-octahydropyrido[4,3-b][1,4]oxazine-6-carbonyl]-3-cyclopropyl-5-methoxyimidazo[1,2-a]pyridin-2-yl]-1-(cyclopropylmethyl)pyrrolo [2,3-b]pyridin-6-yl]-~{N}-(difluoromethyl) methanesulfonamide] |
| 156 | COc1cc(C(=O)N2[C@H]3CC[C@@H]2[C@H](N)C3)cc2nc(-c3cc4ccc(N(C(F)F)S(C)(=O)=O)nc4n3CC3CC3)c(C3CC3)n12 [Example 385, ~{N}-[2-[7-[(1~{R},2~{R}, 4~{S})-2-amino-7-azabicyclo[2.2.1]heptane-7-carbonyl]-3-cyclopropyl-5-methoxyimidazo[1,2-a]pyridin-2-yl]-1-(cyclopropylmethyl)pyrrolo [2,3-b]pyridin-6-yl]-~{N}-(difluoromethyl) methanesulfonamide] |
| 126 | CS(=O)(=O)N(c1ccc2cc(-c3nc4cc(C(=O)N5[C@H]6CC[C@@H]5[C@H](N)C6)ccn4c3C3CC3)n(CC3CC3)c2n1)C(F)F [Example 386, ~{N}-[2-[7-[(1~{R},2~{R}, 4~{S})-2-amino-7-azabicyclo[2.2.1]heptane-7-carbonyl]-3-cyclopropylimidazo [1,2-a]pyridin-2-yl]-1-(cyclopropylmethyl)pyrrolo [2,3-b]pyridin-6-yl]-~{N}-(difluoromethyl) methanesulfonamide] |
| 779 | CSc1cc(C(=O)N2CCC[C@@H](N)C2)cc2nc(-c3cc4ccc(N(C(F)F)S(C)(=O)=O)nc4n3CC3CC3)c(C)n12 [Example 387, ~{N}-[2-[7-[(3~{R})-3-aminopiperidine-1-carbonyl]-3-methyl-5-methylsulfanylimidazo[1,2-a]pyridin-2-yl]-1-(cyclopropylmethyl)pyrrolo [2,3-b]pyridin-6-yl]-~{N}-(difluoromethyl) methanesulfonamide] |
| 95.3 | COc1cc(C(=O)N2CCC[C@@H](N)C2)cc2nc(-c3cc4ccc(N(C(F)F)S(C)(=O)=O)nc4n3CC3CC3)c(C)n12 [Example 388, ~{N}-[2-[7-[(3~{R})-3-aminopiperidine-1-carbonyl]-5-methoxy-3-methylimidazo [1,2-a]pyridin-2-yl]-1-(cyclopropylmethyl)pyrrolo [2,3-b]pyridin-6-yl]-~{N}-(difluoromethyl) methanesulfonamide] |
| 84.8 | COc1cc(C(=O)N2[C@H]3CC[C@@H]2[C@H](N)C3)cc2nc(-c3cc4ccc(N(C(F)F)S(C)(=O)=O)nc4n3CC3CC3)c(C)n12 [Example 389, N-(2-(7-((1R,2R,4S)-2-amino-7-azabicyclo[2.2.1]heptane-7-carbonyl)-5-methoxy-3-methylimidazo[1,2-a]pyridin-2-yl)-1-(cyclopropylmethyl)-1H-pyrrolo[2,3-b]pyridin-6-yl)-N-(difluoromethyl)methanesulfonamide] |
| 3790 | C=CCN[C@@H]1CC[C@@H]2CC[C@H]1N2C(=O)c1cc(OC)n2c(C)c(-c3cc4ccc(N(C(F)F)S(C)(=O)=O)nc4n3CC3CC3)nc2c1 [Example 390, ~{N}-[1-(cyclopropylmethyl)-2-[5-methoxy-3-methyl-7-[(1~{R},2~{R},5~{R})-2-(prop-2-enylamino)-8-azabicyclo[3.2.1]octane-8-carbonyl]imidazo[1,2-a]pyridin-2-yl]pyrrolo [2,3-b]pyridin-6-yl]-~{N}-(difluoromethyl) methanesulfonamide] |
| 104 | COc1cc(C(=O)N2CCC[C@@H](N)C2)cc2nc(-c3cc4ccc(N(C(F)F)S(C)(=O)=O)nc4n3CC3CC3)c(C3CC3)n12 [Example 391, ~{N}-[2-[7-[(3~{R})-3-aminopiperidine-1-carbonyl]-3-cyclopropyl-5-methoxyimidazo [1,2-a]pyridin-2-yl]-1-(cyclopropylmethyl)pyrrolo [2,3-b]pyridin-6-yl]-~{N}-(difluoromethyl) methanesulfonamide] |
| 148 | CS(=O)(=O)N(c1ccc2cc(-c3nc4cc(C(=O)N5CCC[C@@H](N)C5)c(F)cn4c3C3CC3)n(CC3CC3)c2n1)C(F)F [Example 392, ~{N}-[2-[7-[(3~{R})-3-aminopiperidine-1-carbonyl]-3-cyclopropyl-6-fluoroimidazo [1,2-a]pyridin-2-yl]-1-(cyclopropylmethyl)pyrrolo [2,3-b]pyridin-6-yl]-~{N}-(difluoromethyl) methanesulfonamide] |
| 2010 | CS(=O)(=O)N(c1ccc2cc(-c3nc4cc(C(=O)N5CC[C@@H](N)C5)ccn4c3C3CC3)n(CC3CC3)c2n1)C(F)F [Example 393, ~{N}-[2-[7-[(3~{R})-3-aminopyrrolidine-1-carbonyl]-3-cyclopropylimidazo[1,2-a]pyridin-2-yl]-1-(cyclopropylmethyl)pyrrolo [2,3-b]pyridin-6-yl]-~{N}-(difluoromethyl) methanesulfonamide] |
| 1070 | CS(=O)(=O)N(c1ccc2cc(-c3nc4cc(C(=O)N5CC[C@@H](F)[C@@H](N)C5)ccn4c3C3CC3)n(CC3CC3)c2n1)C(F)F [Example 394, ~{N}-[2-[7-[(3~{S},4~{R})-3-amino-4-fluoropiperidine-1-carbonyl]-3-cyclopropylimidazo[1,2-a]pyridin-2-yl]-1-(cyclopropylmethyl)pyrrolo [2,3-b]pyridin-6-yl]-~{N}-(difluoromethyl) methanesulfonamide] |
| 259 | CS(=O)(=O)N(c1ccc2cc(-c3nc4cc(C(=O)N5CC[C@@H](O)[C@@H](N)C5)ccn4c3C3CC3)n(CC3CC3)c2n1)C(F)F [Example 395, ~{N}-[2-[7-[(3~{S},4~{R})-3-amino-4-hydroxypiperidine-1-carbonyl]-3-cyclopropylimidazo[1,2-a]pyridin-2-yl]-1-(cyclopropylmethyl)pyrrolo [2,3-b]pyridin-6-yl]-~{N}-(difluoromethyl) methanesulfonamide] |
| 194 | CS(=O)(=O)N(c1ccc2cc(-c3nc4cc(C(=O)N5C[C@H]6CC[C@@H]5[C@@H]6N)ccn4c3C3CC3)n(CC3CC3)c2n1)C(F)F [Example 396, N-[2-[7-[(1R,4R,7R)-7-amino-2-azabicyclo [2.2.1]heptane-2-carbonyl]-3-cyclopropyl-imidazo[1,2-a]pyridin-2-yl]-1-(cyclopropylmethyl)pyrrolo [2,3-b]pyridin-6-yl]-N-(difluoromethyl) methanesulfonamide] |
| 74.8 | CS(=O)(=O)N(c1ccc2cc(-c3nc4cc(C(=O)N5[C@@H]6CC[C@@H](N)[C@H]5CC6)ccn4c3C3CC3)n(CC3CC3)c2n1)C(F)F [Example 397] |
